Measured values: patent publication US10632181B2, “Composition, containing RGD motif-containing peptide or fragment thereof, for treating burns and glaucoma, alleviating skin wrinkles, and promoting hair growth” (HUONS CO., LTD., priority 2014, dated 2020)
Positions of bridges follow the written chain, without caps; N, C: chain ends. No end group written: not given here.

Tests used:
wrinkles around eyes [1] = assay: Wrinkle extent around eyes, skin replica, Visiometer SV600; type: in vivo, Women aged 30-65; set-up: R3 numerical value (average roughness) / R1 numerical value (skin roughness) / R4 numerical value (smoothness depth) / R5 numerical value (arithmetic average roughness): unit not given here
Procedure: The extent of wrinkles around eyes was measured using equipment. A target site to measure the wrinkle extent was regions around the eyes of the subjects, and the left side and the right side of the face were set as a measurement site. To measure the wrinkle extent, the subjects were allowed to wash the measurement site with water, and take a rest for 30 minutes in the waiting room under constant temperature and constant humidity conditions of indoor temperature 20-25° C. and humidity 40-60% to acclimate the skin surface temperature and humidity to the environment of the measurement space, and were not permitted to drink water during the rest. For objective measurement, measurements were performed by one researcher, and the same site was measured at each time of the first visit before use and the second and third visits in 2 and 4 weeks after use. Transparency profilometry analysis was performed using Visiometer SV600 (Courage-Khazaka electronic GmbH, Germany) on skin replica of the site to which test product and control product were applied before use and 2 and 4 weeks after use, and to identify if there is any difference in each of control group and experimental group after use, a change (%) in R1, R2, R4, R5 measurement values in 2 and 4 weeks after use relative to before use was analyzed.

wrinkles around eyes [2] = assay: Wrinkle extent around eyes by 3D imaging (PRIMOS Premium); type: in vivo, Women aged 30-65; settings: for Rmax numerical value (maximum height of wrinkle profile) / Rp numerical value (maximum profile peak height) / Rv numerical value (maximum profile valley depth): in µm (unit assumed)
Procedure: Furthermore, the wrinkle extent was measured by 3D imaging. A target site to measure the wrinkle extent was regions around the eyes of the subjects, and the right side of the face was set as a measurement site. To measure the wrinkle extent, the subjects were allowed to wash the measurement site with water, and take a rest for 30 minutes in the waiting room under constant temperature constant humidity conditions of indoor temperature 20-25° C. and humidity 40-60% to acclimate the skin surface temperature and humidity to the environment of the measurement space, and were not permitted to drink water during the rest. For objective measurement, measurements were performed by one researcher, and the same site was measured at each time of the first visit before use and the second and third visits in 2 and 4 weeks after use. Before use and in 2 and 4 weeks after use, images of the site to which the test product (HU022 (SEQ ID NO:1)) was applied were formed using 3D skin imaging machine (PRIMOS Premium), and to verify if there is any difference in each of control group and experimental group in 4 weeks after use, wrinkle parameters, Ra, Rmax, Rt, Rp, Rv values, in the stored images of 2 weeks and 4 weeks after use relative to before use were analyzed.

wrinkles around eyes [3] = assay: Expert visual assessment of wrinkles (global photodamage score); type: in vivo, Women aged 30-65; settings: for expert visual assessment score: severity 0-7
Procedure: Furthermore, visual assessment was performed. At each visit before and after use, experts assessed the wrinkle extent by scoring using global photodamage score (Br J Dermatol. 2010; 162(3):497-502). To verify if there is any difference in each of control group and experimental group in 4 weeks after use, a change (%) in visual assessment scores of 2 weeks and 4 weeks after use relative to before use was analyzed. The visual assessment scores are as follows (Table 18): […]

wrinkles around eyes [4] = assay: Survey of subjects about wrinkle reduction effectiveness; type: in vivo, Women aged 30-65
Procedure: Furthermore, surveying the subjects about effectiveness was conducted. The subjects were asked to personally make responses about the extent to which the subjects felt that wrinkles reduced after use of test product using 5 levels: better (4), a little bit better (3), no change (2), a little bit worse (1), worse (0). The researcher determined if test product has efficacy by calculating the percentage of the number of subjects for each response.

skin = settings: in vivo
Procedure: Women aged 30-65 having wrinkles around eyes were tested. […] They had second and third visits at the interval of 2 weeks after the start of use, and at each visit, were required to respond to various types of assessment and investigation defined in the experiment.
Furthermore, safety assessment was performed, and for safety of clinical test product, in all subjects having used the test product at least once, abnormal responses found at the second week and fourth week after use and abnormal responses reported during the test period were all used as safety assessment data of the product.

wrinkles around eyes [5] = assay: Wrinkle extent around eyes, skin replica, Visiometer SV600; type: in vivo, Women aged 30-65; set-up: R3 numerical value (average roughness): unit not given here
[6] = response 2 (fair), 4 weeks after use
[7] = response 3 (good), 4 weeks after use
[8] = response 4 (very good), 4 weeks after use

HU024 (RPTRGDCDLPEFCPG; disulfide 7-13; listed as Homo sapiens)
R1 numerical value (skin roughness) (wrinkles around eyes [1]; 2 weeks after use, twice daily): 57.29 ± 3.21
R2 numerical value (maximum roughness) (wrinkles around eyes [1]; 2 weeks after use, twice daily): 30.71 ± 6.57
R3 numerical value (average roughness) (wrinkles around eyes [1]; 2 weeks after use, twice daily): 20.80 ± 3.97
R4 numerical value (smoothness depth) (wrinkles around eyes [1]; 2 weeks after use, twice daily): 26.24 ± 2.90
R5 numerical value (arithmetic average roughness) (wrinkles around eyes [1]; 2 weeks after use, twice daily): 11.58 ± 0.89
R1 numerical value (skin roughness) (wrinkles around eyes [1]; 4 weeks after use, twice daily): 45.23 ± 13.77
R2 numerical value (maximum roughness) (wrinkles around eyes [1]; 4 weeks after use, twice daily): 28.67 ± 7.47
R3 numerical value (average roughness) (wrinkles around eyes [1]; 4 weeks after use, twice daily): 17.81 ± 4.00
R4 numerical value (smoothness depth) (wrinkles around eyes [1]; 4 weeks after use, twice daily): 20.64 ± 6.07
R5 numerical value (arithmetic average roughness) (wrinkles around eyes [1]; 4 weeks after use, twice daily): 8.42 ± 3.48
R1 numerical value (skin roughness) (wrinkles around eyes [1]; Before use): 71.33 ± 15.86
R2 numerical value (maximum roughness) (wrinkles around eyes [1]; Before use): 46.06 ± 11.62
R4 numerical value (smoothness depth) (wrinkles around eyes [1]; Before use): 31.44 ± 11.04
R5 numerical value (arithmetic average roughness) (wrinkles around eyes [1]; Before use): 13.52 ± 5.43
Change(%) in R1 (wrinkles around eyes [1]; Before use-2 weeks after use): −19.68%
Change(%) in R4 (wrinkles around eyes [1]; Before use-2 weeks after use): −16.54%
Change(%) in R5 (wrinkles around eyes [1]; Before use-2 weeks after use): −14.36%
Change(%) in R1 (wrinkles around eyes [1]; Before use-4 weeks after use): −36.59%
Change(%) in R3 (wrinkles around eyes [1]; Before use-4 weeks after use): −54.55%
Change(%) in R4 (wrinkles around eyes [1]; Before use-4 weeks after use): −34.36%
Change(%) in R5 (wrinkles around eyes [1]; Before use-4 weeks after use): −37.71%
Ra numerical value (roughness average of wrinkle profile) (wrinkles around eyes [2]; 2 weeks after use, twice daily): 18.33 ± 2.12
Rt numerical value (distance between highest peak and lowest valley) (wrinkles around eyes [2]; 2 weeks after use, twice daily): 216.37 ± 41.76
Rmax numerical value (maximum height of wrinkle profile) (wrinkles around eyes [2]; 2 weeks after use, twice daily): 198.77 ± 39.74
Rp numerical value (maximum profile peak height) (wrinkles around eyes [2]; 2 weeks after use, twice daily): 155.24 ± 43.18
Rv numerical value (maximum profile valley depth) (wrinkles around eyes [2]; 2 weeks after use, twice daily): 61.12 ± 8.02
Ra numerical value (roughness average of wrinkle profile) (wrinkles around eyes [2]; 4 weeks after use, twice daily): 17.71 ± 2.43
Rt numerical value (distance between highest peak and lowest valley) (wrinkles around eyes [2]; 4 weeks after use, twice daily): 210.60 ± 38.61
Rmax numerical value (maximum height of wrinkle profile) (wrinkles around eyes [2]; 4 weeks after use, twice daily): 196.85 ± 39.02
Rp numerical value (maximum profile peak height) (wrinkles around eyes [2]; 4 weeks after use, twice daily): 153.78 ± 36.12
Rv numerical value (maximum profile valley depth) (wrinkles around eyes [2]; 4 weeks after use, twice daily): 56.82 ± 12.01
Ra numerical value (roughness average of wrinkle profile) (wrinkles around eyes [2]; Before use): 18.64 ± 3.19
Rt numerical value (distance between highest peak and lowest valley) (wrinkles around eyes [2]; Before use): 225.94 ± 45.00
Change(%) in Ra (wrinkles around eyes [2]; Before use-2 weeks after use): −0.75%
Change(%) in Rmax (wrinkles around eyes [2]; Before use-2 weeks after use): −3.77%
Change(%) in Rp (wrinkles around eyes [2]; Before use-2 weeks after use): −3.48%
Change(%) in Rt (wrinkles around eyes [2]; Before use-2 weeks after use): −4.24%
Change(%) in Rv (wrinkles around eyes [2]; Before use-2 weeks after use): −6.10%
Change(%) in Ra (wrinkles around eyes [2]; Before use-4 weeks after use): −4.10%
Change(%) in Rmax (wrinkles around eyes [2]; Before use-4 weeks after use): −4.69%
Change(%) in Rp (wrinkles around eyes [2]; Before use-4 weeks after use): −4.40%
Change(%) in Rt (wrinkles around eyes [2]; Before use-4 weeks after use): −6.79%
Change(%) in Rv (wrinkles around eyes [2]; Before use-4 weeks after use): −12.71%
Rmax numerical value (maximum height of wrinkle profile) (wrinkles around eyes [2]; Before use): 206.55 ± 40.54
Rp numerical value (maximum profile peak height) (wrinkles around eyes [2]; Before use): 160.85 ± 37.51
Rv numerical value (maximum profile valley depth) (wrinkles around eyes [2]; Before use): 65.09 ± 11.95
expert visual assessment score (wrinkles around eyes [3]; 2 weeks after use): 2.00 ± 0.63
expert visual assessment score (wrinkles around eyes [3]; 4 weeks after use): 1.67 ± 0.82
expert visual assessment score (wrinkles around eyes [3]; Before use): 2.00 ± 0.63
Change(%) in expert visual assessment score (wrinkles around eyes [3]; Before use-2 weeks after use): 0%
Change(%) in expert visual assessment score (wrinkles around eyes [3]; Before use-4 weeks after use): −16.67%
Number of subjects, wrinkle reduction survey (wrinkles around eyes [4]; response 0 (very bad), 4 weeks after use): 0
Number of subjects, wrinkle reduction survey (wrinkles around eyes [4]; response 1 (bad), 4 weeks after use): 0
Number of subjects, wrinkle reduction survey (wrinkles around eyes [4]; [6]): 1
Percentage of subjects, wrinkle reduction survey (wrinkles around eyes [4]; [6]): (16.7) %
Number of subjects, wrinkle reduction survey (wrinkles around eyes [4]; [7]): 4
Percentage of subjects, wrinkle reduction survey (wrinkles around eyes [4]; [7]): (66.7) %
Number of subjects, wrinkle reduction survey (wrinkles around eyes [4]; [8]): 1
Percentage of subjects, wrinkle reduction survey (wrinkles around eyes [4]; [8]): (16.7) %
Mean of wrinkle reduction survey response (wrinkles around eyes [4]; scale 0-4, 4 weeks after use): 3.00
survey assessment about wrinkle reduction, test product versus control product (wrinkles around eyes [4]; third visit, 4 weeks after use): test product was better at reducing wrinkles than control product
abnormal response / skin irritation (skin): safe product not causing irritation to the skin
R3 numerical value (average roughness) (wrinkles around eyes [5]; Before use): 29.15 ± 5.56
Change(%) in R3 (wrinkles around eyes [5]; Before use-2 weeks after use): −28.66%
